Experimental data as given in patent US20230085307A1, “PYRIDAZINONE COMPOUND AND HERBICIDE” (NISSAN CHEMICAL CORPORATION, priority 2019, published 2023).

What was measured:
[1] = test system: persian speedwell; experiment: Test Example 5: herbicidal effect by foliage application, plastic box (Table 20, symbol R); format: in vivo, Persian speedwell (Veronica persica)
Summary of the method: (§1)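 Plants were sown into sterilized diluvial soil under about 1.5 cm cover and kept in a greenhouse at 25° C. to 30° C. Fourteen days on, foliage received an even spray of the diluted emulsion. Herbicidal or crop effect was judged three weeks afterwards.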

[2] = test system: wild oat; experiment: Test Example 5: herbicidal effect by foliage application, plastic box (Table 20, symbol I); format: in vivo, wild oat (Avena fatua)
Summary of the method: as §1

[3] = test system: southern crabgrass; experiment: Test Example 4: herbicidal effect by soil treatment (Table 19, symbol F); format: in vivo, southern crabgrass (Digitaria ciliaris); conditions: amount of applied herbicide 320 g/ha
Summary of the method: (§2)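 In this soil treatment, the formulated compound reached the seeds only through the soil: seeds were buried about 1.5 cm deep in sterilized diluvial soil, then the diluted emulsion was sprayed over the surface. After three weeks at 25° C. to 30° C. in a greenhouse, effects were graded on criteria from an earlier test.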

[4] = test system: Chinese sprangletop; experiment: Test Example 3: herbicidal effect by foliage application, Wagner pot (Table 18, symbol D); format: in vivo, chinese sprangletop (Leptochloa chinensis); conditions: 320 g/ha
Summary of the method: (§3)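 Plants were sown in alluvial soil held under 0.1–0.5 cm standing water and grown 14 days in a greenhouse at 25–30 °C. An emulsifiable formulation, water-diluted to the set dose, was then sprayed onto the foliage, and effects were scored three weeks later using previously defined criteria.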

[5] = test system: chickweed; experiment: Test Example 5: herbicidal effect by foliage application, plastic box (Table 20, symbol P); format: in vivo, common chickweed (Stellaria media)
Summary of the method: as §1

[6] = test system: barnyard grass; experiment: Test Example 3: herbicidal effect by foliage application, Wagner pot (Table 18, symbol H); format: in vivo, barnyard grass (Echinochloa crus-galli); conditions: 320 g/ha
Summary of the method: as §3

[7] = test system: lambsquarters; experiment: Test Example 4: herbicidal effect by soil treatment (Table 19, symbol O); format: in vivo, lambsquarters (Chenopodium album); conditions: amount of applied herbicide 320 g/ha
Summary of the method: as §2

[8] = test system: persian speedwell; experiment: Test Example 4: herbicidal effect by soil treatment (Table 19, symbol R); format: in vivo, Persian speedwell (Veronica persica); conditions: amount of applied herbicide 320 g/ha
Summary of the method: as §2

[9] = test system: southern crabgrass; experiment: Test Example 5: herbicidal effect by foliage application, plastic box (Table 20, symbol F); format: in vivo, southern crabgrass (Digitaria ciliaris)
Summary of the method: as §1

[10] = test system: wild oat; experiment: Test Example 4: herbicidal effect by soil treatment (Table 19, symbol I); format: in vivo, wild oat (Avena fatua); conditions: amount of applied herbicide 320 g/ha
Summary of the method: as §2

[11] = test system: windgrass; experiment: Test Example 5: herbicidal effect by foliage application, plastic box (Table 20, symbol L); format: in vivo, windgrass (Apera spica-venti)
Summary of the method: as §1

[12] = test system: green foxtail; experiment: Test Example 4: herbicidal effect by soil treatment (Table 19, symbol G); format: in vivo, green foxtail (Setaria viridis); conditions: amount of applied herbicide 320 g/ha
Summary of the method: as §2

[13] = test system: velvetleaf; experiment: Test Example 5: herbicidal effect by foliage application, plastic box (Table 20, symbol M); format: in vivo, velvetleaf (Abutilon theophrasti)
Summary of the method: as §1

[14] = test system: windgrass; experiment: Test Example 4: herbicidal effect by soil treatment (Table 19, symbol L); format: in vivo, windgrass (Apera spica-venti); conditions: amount of applied herbicide 320 g/ha
Summary of the method: as §2

[15] = test system: barnyard grass; experiment: Test Example 4: herbicidal effect by soil treatment (Table 19, symbol H); format: in vivo, barnyard grass (Echinochloa crus-galli); conditions: amount of applied herbicide 320 g/ha
Summary of the method: as §2

[16] = test system: velvetleaf; experiment: Test Example 4: herbicidal effect by soil treatment (Table 19, symbol M); format: in vivo, velvetleaf (Abutilon theophrasti); conditions: amount of applied herbicide 320 g/ha
Summary of the method: as §2

[17] = test system: barnyard grass; experiment: Test Example 5: herbicidal effect by foliage application, plastic box (Table 20, symbol H); format: in vivo, barnyard grass (Echinochloa crus-galli)
Summary of the method: as §1

[18] = test system: blackgrass; experiment: Test Example 5: herbicidal effect by foliage application, plastic box (Table 20, symbol J); format: in vivo, blackgrass (Alopecurus myosuroides)
Summary of the method: as §1

[19] = test system: redroot pigweed; experiment: Test Example 4: herbicidal effect by soil treatment (Table 19, symbol N); format: in vivo, redroot pigweed (Amaranthus retroflexus); conditions: amount of applied herbicide 320 g/ha
Summary of the method: as §2

[20] = test system: chickweed; experiment: Test Example 4: herbicidal effect by soil treatment (Table 19, symbol P); format: in vivo, common chickweed (Stellaria media); conditions: amount of applied herbicide 320 g/ha
Summary of the method: as §2

[21] = test system: Italian ryegrass; experiment: Test Example 5: herbicidal effect by foliage application, plastic box (Table 20, symbol K); format: in vivo, Italian ryegrass (Lolium multiflorum)
Summary of the method: as §1

[22] = test system: green foxtail; experiment: Test Example 5: herbicidal effect by foliage application, plastic box (Table 20, symbol G); format: in vivo, green foxtail (Setaria viridis)
Summary of the method: as §1

[23] = test system: rice flat sedge; experiment: Test Example 3: herbicidal effect by foliage application, Wagner pot (Table 18, symbol E); format: in vivo, rice flat sedge (Cyperus iria); conditions: 320 g/ha
Summary of the method: as §3

[24] = test system: lambsquarters; experiment: Test Example 5: herbicidal effect by foliage application, plastic box (Table 20, symbol O); format: in vivo, lambsquarters (Chenopodium album)
Summary of the method: as §1

[25] = test system: blackgrass; experiment: Test Example 4: herbicidal effect by soil treatment (Table 19, symbol J); format: in vivo, blackgrass (Alopecurus myosuroides); conditions: amount of applied herbicide 320 g/ha
Summary of the method: as §2

[26] = test system: Italian ryegrass; experiment: Test Example 4: herbicidal effect by soil treatment (Table 19, symbol K); format: in vivo, Italian ryegrass (Lolium multiflorum); conditions: amount of applied herbicide 320 g/ha
Summary of the method: as §2

[27] = test system: redroot pigweed; experiment: Test Example 5: herbicidal effect by foliage application, plastic box (Table 20, symbol N); format: in vivo, redroot pigweed (Amaranthus retroflexus)
Summary of the method: as §1

[28] = amount of applied herbicide 320 g/ha, foliage application after 14-day growth, evaluated three weeks after application
[29] = foliage application, 320 g/ha, three weeks after application

Cc1nn(C)c(=O)c(-c2c(-c3ccc(C#N)cc3)sc3cc(F)c(F)cc23)c1O [5-025]
Herbicidal effect by foliage application, R: persian speedwell [1, 28]: 5 (Herbicidal rate of 90% or more (almost completely withered)) | Herbicidal effect by foliage application, I: wild oat [2, 28]: 3 (Herbicidal rate of 40% or more and less than 70%) | F: southern crabgrass, herbicidal effect grade [3]: 1 (Herbicidal rate of 5% or more and less than 20%) | herbicidal effect on Chinese sprangletop (D) [4]: 4 (Herbicidal rate of 70% or more and less than 90%) | Herbicidal effect by foliage application, P: chickweed [5, 28]: 5 (Herbicidal rate of 90% or more (almost completely withered)) | herbicidal effect on barnyard grass (H) [6]: 3 (Herbicidal rate of 40% or more and less than 70%) | O: lambsquarters, herbicidal effect grade [7]: 5 (Herbicidal rate of 90% or more (almost completely withered)) | R: persian speedwell, herbicidal effect grade [8]: 4 (Herbicidal rate of 70% or more and less than 90%) | Herbicidal effect by foliage application, F: southern crabgrass [9, 28]: 3 (Herbicidal rate of 40% or more and less than 70%) | I: wild oat, herbicidal effect grade [10]: 1 (Herbicidal rate of 5% or more and less than 20%) | Herbicidal effect by foliage application, L: windgrass [11, 28]: 5 (Herbicidal rate of 90% or more (almost completely withered)) | G: green foxtail, herbicidal effect grade [12]: 4 (Herbicidal rate of 70% or more and less than 90%) | Herbicidal effect by foliage application, M: velvetleaf [13, 28]: 5 (Herbicidal rate of 90% or more (almost completely withered)) | L: windgrass, herbicidal effect grade [14]: 0 (Herbicidal rate of 5% or less (almost no effect)) | H: barnyard grass, herbicidal effect grade [15]: 3 (Herbicidal rate of 40% or more and less than 70%) | M: velvetleaf, herbicidal effect grade [16]: 3 (Herbicidal rate of 40% or more and less than 70%) | Herbicidal effect by foliage application, H: barnyard grass [17, 28]: 1 (Herbicidal rate of 5% or more and less than 20%) | Herbicidal effect by foliage application, J: blackgrass [18, 28]: 1 (Herbicidal rate of 5% or more and less than 20%) | N: redroot pigweed, herbicidal effect grade [19]: 5 (Herbicidal rate of 90% or more (almost completely withered)) | P: chickweed, herbicidal effect grade [20]: 3 (Herbicidal rate of 40% or more and less than 70%) | Herbicidal effect by foliage application, K: Italian ryegrass [21, 28]: 1 (Herbicidal rate of 5% or more and less than 20%) | Herbicidal effect by foliage application, G: green foxtail [22, 28]: 4 (Herbicidal rate of 70% or more and less than 90%) | herbicidal effect on rice flat sedge (E) [23]: 4 (Herbicidal rate of 70% or more and less than 90%) | Herbicidal effect by foliage application, O: lambsquarters [24, 28]: 5 (Herbicidal rate of 90% or more (almost completely withered)) | J: blackgrass, herbicidal effect grade [25]: 0 (Herbicidal rate of 5% or less (almost no effect)) | K: Italian ryegrass, herbicidal effect grade [26]: 1 (Herbicidal rate of 5% or more and less than 20%) | Herbicidal effect by foliage application, N: redroot pigweed [27, 28]: 5 (Herbicidal rate of 90% or more (almost completely withered))

CCCC(=O)Oc1c(C)nn(C)c(=O)c1-c1c(-c2ccc(OCC)nc2)sc2ccccc12 [1-077]
herbicidal effect grade, R: persian speedwell [1, 29]: 5 (Herbicidal rate of 90% or more (almost completely withered)) | herbicidal effect grade, I: wild oat [2, 29]: 1 (Herbicidal rate of 5% or more and less than 20%) | herbicidal effect rating, F: southern crabgrass [3]: 0 (Herbicidal rate of 5% or less (almost no effect)) | herbicidal effect on D (Chinese sprangletop), rating 0-5 [4]: 1 (Herbicidal rate of 5% or more and less than 20%) | herbicidal effect grade, P: chickweed [5, 29]: 3 (Herbicidal rate of 40% or more and less than 70%) | herbicidal effect on H (barnyard grass), rating 0-5 [6]: 4 (Herbicidal rate of 70% or more and less than 90%) | herbicidal effect rating, O: lambsquarters [7]: 0 (Herbicidal rate of 5% or less (almost no effect)) | herbicidal effect rating, R: persian speedwell [8]: 4 (Herbicidal rate of 70% or more and less than 90%) | herbicidal effect grade, F: southern crabgrass [9, 29]: 0 (Herbicidal rate of 5% or less (almost no effect)) | herbicidal effect rating, I: wild oat [10]: 0 (Herbicidal rate of 5% or less (almost no effect)) | herbicidal effect grade, L: windgrass [11, 29]: 0 (Herbicidal rate of 5% or less (almost no effect)) | herbicidal effect rating, G: green foxtail [12]: 0 (Herbicidal rate of 5% or less (almost no effect)) | herbicidal effect grade, M: velvetleaf [13, 29]: 4 (Herbicidal rate of 70% or more and less than 90%) | herbicidal effect rating, L: windgrass [14]: 0 (Herbicidal rate of 5% or less (almost no effect)) | herbicidal effect rating, H: barnyard grass [15]: 0 (Herbicidal rate of 5% or less (almost no effect)) | herbicidal effect rating, M: velvetleaf [16]: 0 (Herbicidal rate of 5% or less (almost no effect)) | herbicidal effect grade, H: barnyard grass [17, 29]: 2 (Herbicidal rate of 20% or more and less than 40%) | herbicidal effect grade, J: blackgrass [18, 29]: 1 (Herbicidal rate of 5% or more and less than 20%) | herbicidal effect rating, N: redroot pigweed [19]: 0 (Herbicidal rate of 5% or less (almost no effect)) | herbicidal effect rating, P: chickweed [20]: 4 (Herbicidal rate of 70% or more and less than 90%) | herbicidal effect grade, K: Italian ryegrass [21, 29]: 1 (Herbicidal rate of 5% or more and less than 20%) | herbicidal effect grade, G: green foxtail [22, 29]: 1 (Herbicidal rate of 5% or more and less than 20%) | herbicidal effect on E (rice flat sedge), rating 0-5 [23]: 4 (Herbicidal rate of 70% or more and less than 90%) | herbicidal effect grade, O: lambsquarters [24, 29]: 0 (Herbicidal rate of 5% or less (almost no effect)) | herbicidal effect rating, J: blackgrass [25]: 0 (Herbicidal rate of 5% or less (almost no effect)) | herbicidal effect rating, K: Italian ryegrass [26]: 0 (Herbicidal rate of 5% or less (almost no effect)) | herbicidal effect grade, N: redroot pigweed [27, 29]: 0 (Herbicidal rate of 5% or less (almost no effect))
